Patent US12441706B2, “Protein degradation agent compound preparation method and application” (SHANGHAI JEMINCARE PHARMACEUTICALS CO., LTD., priority 2019, dated 2025)

Legend:
[1] = tested on: LNcap FGC cells; experiment: Inhibition of proliferation of LNcap FGC cells (Cell Titer Glo, 6 days); format: cell-based; settings: Homo sapiens, LNCaP, 144 h
Description: Tumor cell line LNcap FGC (ATCC catalog number CRL-1740) was cultured in RPMI 1640 (Gibco catalog number 11875-093) and DMEM (Gibco catalog number. 11965-092) medium containing 10% FBS (Gibco catalog number 10099-141C), respectively.
(§1) LNcap FGC cells were inoculated in a 384-well plate (Perkin Elmer catalog number 6007460) at a cell density of 400 cells/well in a volume of 20 μL/well and incubated overnight in a carbon dioxide incubator (Thermo). The prepared compound solutions of different concentrations were added in a volume of 5 μL/well. The corresponding vehicle control was set at the same time. After being cultured in the incubator for 6 days, the cell plate and the contents were equilibrated to room temperature, and 25 μL of Cell Titer Glor (Promega catalog number G7573) was added to each well, shook and mixed well, incubated in dark for 10-30 minutes, and the signal values were detected with Envision microplate reader (PerkinElmer).
(§2) The percentage inhibition rate of compound-treated wells was calculated from the vehicle control wells on the plate, and the percentage inhibition rate data corresponding to different concentrations were fitted by GraphPad prism, and the IC50 values were calculated by 4-parameter nonlinear logic formula.

[2] = biological target: T1, androgen receptor (Homo sapiens, UniProt P10275); experiment: In-Cell-Western determination of androgen receptor degradation in VCaP cells; format: cell-based; settings: 24 hours treatment
T1 construct: endogenous in cells; host or cells: VCaP cells
T1 sequence (P10275 1-920): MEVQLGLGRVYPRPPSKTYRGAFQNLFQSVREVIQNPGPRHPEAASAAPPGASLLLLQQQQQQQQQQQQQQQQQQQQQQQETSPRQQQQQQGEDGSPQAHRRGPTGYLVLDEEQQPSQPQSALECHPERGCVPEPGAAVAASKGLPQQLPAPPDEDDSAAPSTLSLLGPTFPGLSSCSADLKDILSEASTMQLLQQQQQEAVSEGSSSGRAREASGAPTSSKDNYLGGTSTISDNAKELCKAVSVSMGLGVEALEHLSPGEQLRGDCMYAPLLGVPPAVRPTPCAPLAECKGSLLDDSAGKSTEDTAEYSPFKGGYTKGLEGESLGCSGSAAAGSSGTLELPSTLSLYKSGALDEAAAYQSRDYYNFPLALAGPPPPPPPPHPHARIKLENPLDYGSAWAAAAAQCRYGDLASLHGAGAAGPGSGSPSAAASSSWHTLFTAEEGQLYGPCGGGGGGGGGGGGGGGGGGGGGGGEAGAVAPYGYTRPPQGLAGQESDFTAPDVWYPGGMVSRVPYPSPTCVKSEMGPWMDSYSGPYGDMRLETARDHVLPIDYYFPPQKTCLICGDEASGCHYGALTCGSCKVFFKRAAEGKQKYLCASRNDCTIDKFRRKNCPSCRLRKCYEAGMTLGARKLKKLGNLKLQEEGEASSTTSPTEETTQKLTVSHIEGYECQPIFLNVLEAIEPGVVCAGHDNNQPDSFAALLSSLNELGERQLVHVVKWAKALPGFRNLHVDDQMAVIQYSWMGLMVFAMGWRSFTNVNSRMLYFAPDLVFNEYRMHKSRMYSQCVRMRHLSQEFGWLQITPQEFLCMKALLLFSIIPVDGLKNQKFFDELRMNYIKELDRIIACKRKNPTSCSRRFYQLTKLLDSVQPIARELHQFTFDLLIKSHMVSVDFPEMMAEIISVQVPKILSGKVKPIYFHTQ
Description: The determination evaluated the properties of the compounds in Vcap cells. Intracellular androgen receptor was determined by In-Cell-Western according to the determination steps described below.
In poly-D-Lysin pretreated 96-well cell culture plate (Corning 3599), Vcap cells were divided into […] volume, and inoculated with 50,000 cells/well in Vcap cell assay medium [DMEM containing phenol red (Gibco catalog number: 11995065); fetal bovine serum FBS (Gibco catalog number: 10099141C)]. Cells were cultured for at least two days.
1. First treated cells with compound. Compounds were gradient diluted with DMSO and cell culture medium, so that DMSO contained in cell culture plates was diluted to 0.5% —polypropylene plates were used according to the following protocol:
(1)(i) 200× stock plate in DMSO was prepared; (ii) 10 mM stock solution was diluted 1:4 with DMSO (10 μL stock solution+40 μL DMSO)=2000 μM, then entered into row 2; (iii) 1:4 (10 μL protac+40 μL DMSO) gradient dilution was performed in row 2 to row 9, and row 1 was reserved for 2000 μM reference compound and row 10 for DMSO. (iv) A total of 8 concentrations (final concentrations on the 200×plate were 2000 μM, 400 μM, 80 μM, etc.). (i) 3×stock solution in medium was prepared; (ii) 3 μL of 200× stock solution was transferred to 197 μL of culture medium (using 12-channel pipette, from line 1 to line 10), i.e. 3× stock solution plate. (iii) The stock solution plate was mixed evenly. (3) (i) The culture medium of Vcap cells was replaced with fresh culture medium, 100 μL volume culture medium. (ii) The well-mixed 3×stock solution was transferred to the cell culture plate (using 12-channel pipette, and 50 μL of stock solution was transferred from line 1 to line 10). (iii) Cells were cultured for 24 hours.
2. The expression level of intracellular androgen receptor after compound treatment was […] and determined according to the following method.
(1)(i) Equal volume of 8% paraformaldehyde was added to the cell culture plate for cell fixation. The fixing solution in the cell plate was discarded and washed three times with PBS. (ii) Triton solution (1:1000 dilution of the stock solution) was prepared. The solution in the cell plate was discarded, and 200 μL of Triton diluent was added into each well. (iii) 2×blocking solution (1:4 dilution of 10×blocking stock solution) was prepared. The solution in the cell plate was discarded, and 100 μL of 2×blocking solution was added into each well. (iv) Primary antibody solution (Androgen receptor Rabbbit mAb, Cell Signaling Technology catalog number: 5153; 1:1000 dilution) was prepared. The solution in the cell plate was discarded, 100 μL volume of primary antibody diluent was added to each well, and incubated at 4° C. overnight. (v) The primary antibody solution was discarded and the cell plate was washed with 1×Wash buffer. (vi) Secondary antibody solution (GOAT Antirabbit IgG (H+L), HRP, Thermo catalog number: 31460; 1:5000 dilution) was prepared, and 100 μL volume of secondary antibody dilution was added to each well for incubation. (vii) The secondary antibody solution in the cell plate was discarded and the cell plate was washed with 1× Wash buffer. (viii) TMB chromogenic solution (BD catalog number: 550534) was prepared, and 100 μL chromogenic solution was added into each well. (ix) 50 μL volume of stop solution (BD catalog number: 550534) was added to each well. (x) The absorption values at OD 450 nm and 570 nm were read though EnVision. (2)(i) Normalized analysis was performed on the number of cells in each well. The solution in the cell plate was discarded, and washed with wash buffer for three times. (ii) Janus dilution (1:3 dilution) was prepared. (iii) 50 μL volume diluent was added to each well for incubation. (iv) The solution in the plate was discarded and washed with deionized water. […]

[3] = tested on: VCap cells; experiment: Inhibition of proliferation of VCap cells (Cell Titer Glo, 6 days); format: cell-based; settings: Homo sapiens, VCaP, 144 h
Description: Tumor cell line VCap FGC (ATCC catalog number CRL-2876) was cultured in DMEM (Gibco catalog number 11965-092) medium containing 10% FBS (Gibco catalog number 10099-141C), respectively. During the determination, Vcap cells were replaced with DMEM medium containing 5% FBS and 0.1 nM R1881 (Sigma catalog number R0908).
as §1, with “Vcap” for “LNcap”, “1200” for “400”, “shake” for “shook”, “mix” for “mixed”, “though” for “with”
as §2, with “from” for “from the”

[4] = In vivo pharmacokinetics in mice, intravenous injection and oral administration; set-up: species or system mouse; settings: male CD1 mice
Description: In this experimental example, in vivo pharmacokinetics in mice were evaluated by intravenous injection and oral administration.
Experimental methods and conditions: Male CD1 mice, aged 6-8 weeks, all animals were free access to food and water, and were given a single dose of the compound to be tested at 1 mg/Kg by intravenous injection (solvent 5% DMSO/15% Solutol/80% Saline), at 5 min, 15 min, 30 min, 1 hr, 2 hr, 4 hr, 8 hr, 24 hr, 48 h after drug administration, or oral gavage administration of 10 mg/kg (solvent 5% DMSO/10% Solutol/85% Saline), at 15 min, 30 min, 1 hr, 2 hr, 4 hr, 6 h, 8 hr, 24 hr, 48 h after administration, blood was collected from the orbit, no less than 50 μL for each sample, heparin sodium was used for anticoagulation, and then placed on ice after collection, and centrifuged within 1 hour to separate the plasma for testing. The plasma concentration of the drug was detected by liquid tandem mass spectrometry (LC/MS/MS), and the pharmacokinetic parameters were calculated by Phoenix WinNonlin software.

[5] = tested on: human prostate cancer VCaP cell subcutaneous xenograft tumor; experiment: In vivo pharmacodynamic study, human prostate cancer VCaP cell subcutaneous xenograft tumor CB17 SCID mouse model; settings: castrated CB17 SCID mice, 24th day after administration
Description: Experimental animal: male mice of CB17 SCID strain, aged 6-8 weeks, weighing 18-22 grams, supplier: Beijing Weitong Lihua Laboratory Animal Technology Co., Ltd. Shanghai Branch, animal certificate number: 20170011005577. Animals were reared in the experimental environment for 7 days after arrival and the experiment was started.
Experimental method: Human prostate cancer cell VCaP cells (ATCC-CRL-2876) were cultured in vitro in monolayer, and the culture conditions were DMEM medium with 20% fetal bovine serum, 100 U/mL penicillin and 100 μg/mL streptomycin, cultured in a 5% CO2 incubator at 37° C. Conventional digestion with trypsin-EDTA was performed twice a week for passage. When the cell saturation was 80%-90% and the number reached the requirement, the cells were collected, counted, and inoculated. 0.2 mL (10× 10^6 cells+Matrigel) VCaP cells were subcutaneously inoculated into the left upper limb of each mouse, and castration was performed 33 days after cell inoculation. When the average tumor volume reached 119 mm^3, the drugs were administered in groups, and the doses of compound 14 were set to four groups: 1 mg/kg, 3 mg/kg, 10 mg/kg and 30 mg/kg.
Daily observation of experimental animals: the health status and death of animals were monitored every day. Routine examinations included observing the effects of tumor growth and drug treatment on the daily behavior of animals, such as behavioral activities, food and water intake (visual observation only), and weight changes (body weight measured three times a week), physical signs or other abnormal conditions.
Tumor measurements and experimental indicators: Experimental indicators were to examine whether tumor growth was inhibited, delayed or cured. Tumor diameters were measured with vernier calipers three times a week.
The calculation formula of tumor volume is: V=0.5a×b2, where a and b represented the long diameter and short diameter of the tumor, respectively. The antitumor effect of the compound was evaluated by TGI (%) or relative tumor proliferation rate T/C (%). TGI (%), reflecting the tumor growth inhibition rate. Calculation of TGI (%): TGI (%)=[1−(average tumor volume at the end of administration of a certain treatment group−average tumor volume at the beginning of administration of the treatment group)/(average tumor volume at the end of treatment in the vehicle control group−average tumor volume at the beginning of treatment in the vehicle control group)]×100%. Relative tumor proliferation rate T/C (%): the calculation formula is as follows: T/C %=TRTV/CRTV×100% (TRTV: RTV in the treatment group; CRTV: RTV in the negative control group). The relative tumor volume (RTV) was calculated according to the results of tumor measurement, and the formula is RTV=Vt/V0, where V0 is the average tumor volume measured at the time of group administration (i.e. d0), and Vt is the average tumor volume at a certain measurement, and TRTV and CRTV were taken on the same day. After the experiment, the tumor weight would be detected, and the percentage of T/Cweight would be calculated. Tweight and Cweight represent the tumor weight of the administration group and the vehicle control group, respectively.
Statistical analysis: Statistical analysis included the mean and standard error (SEM) of tumor volume at each time point for each group. […] T-test was used for comparison between two groups, and one-way ANOVA was used for comparison between three or more groups. […]

[6] = mouse, intravenous administration 1 mg/kg, plasma
[7] = mouse, oral administration 10 mg/kg, plasma

## CC1(C)C(=O)N(c2ccc(C#N)c(Cl)c2)c2ccc(-c3ccc(N4CC(CN5CCN(c6ccc7c(c6)C(=O)N(C6CCC(=O)NC6=O)C7=O)CC5)C4)nc3)cc21 (stereo not drawn) [Compound 9]
[1]
  Emax: 100%
  IC50: 35.5 nM
[2]; concentration for half of the maximal degradation of AR in VCaP cells
  DC50: 121 nM
[2]; maximum degradation of AR in VCaP cells
  Dmax: 56%
[3]
  Emax: 97%
  IC50: 61 nM

## CC1(C)[C@H](NC(=O)c2ccc(N3CCC(CN4CCN(c5ccc6c(c5)C(=O)N(C5CCC(=O)NC5=O)C6=O)CC4)CC3)cc2)C(C)(C)[C@H]1Oc1ccc(C#N)c(Cl)c1 (stereo partly drawn) [Reference substance 1, reference compound]
[4]; oral administration 10 mg/kg vs intravenous 1 mg/kg
  F: 99.0%
[4]; [6]
  AUC(0-inf): 5360 ng·h/mL
  clearance: 3.11 mL/min/kg
  half-life: 13.4 h
[4]; [7]
  AUC(0-inf): 53000 ng·h/mL
  Cmax: 1420 ng/mL
  half-life: 14.4 h
[5]; dose 10 mpk
  tumor growth inhibition rate (TGI): 60%

## CNC(=O)c1ccc(N2C(=S)N(c3ccc(C#N)c(C(F)(F)F)c3)C(=O)C2(C)C)cc1F [enzalutamide, reference compound]
[5]
  tumor growth inhibition rate (TGI): 45%
